For 15 compounds, IC50 results are on record in patent US11613533B2, “Compounds useful for inhibiting RET kinase” (Eli Lilly and Company, priority 2020, dated 2023).

Assay [1] concerns the target T1, G810S mutant RET kinase (N-Terminal GST-tagged recombinant human G810S, aa-658-end) (Homo sapiens, UniProt P07949, G810S).
T1 construct: recombinant human G810S (aa-658-end); GST (N); made in house; host or cells: insect cells
T1 sequence (P07949 658-1114 G810S limits assumed): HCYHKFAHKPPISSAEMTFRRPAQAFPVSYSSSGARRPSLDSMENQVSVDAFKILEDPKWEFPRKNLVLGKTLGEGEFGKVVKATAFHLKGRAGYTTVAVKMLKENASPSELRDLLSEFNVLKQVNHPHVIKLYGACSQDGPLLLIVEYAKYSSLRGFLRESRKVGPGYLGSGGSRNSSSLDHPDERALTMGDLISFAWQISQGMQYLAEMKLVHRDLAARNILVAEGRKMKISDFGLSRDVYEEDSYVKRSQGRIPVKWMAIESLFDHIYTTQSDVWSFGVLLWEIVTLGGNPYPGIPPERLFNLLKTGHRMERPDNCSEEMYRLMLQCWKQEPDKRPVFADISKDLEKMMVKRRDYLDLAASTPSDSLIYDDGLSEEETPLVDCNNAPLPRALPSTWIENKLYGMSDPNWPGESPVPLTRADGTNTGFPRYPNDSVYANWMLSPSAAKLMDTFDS
In words: RET enzyme assay (HTRF KinEASE TK), G810S. It counts as biochemical. The following applies: 1 mM ATP, 60 min incubation at 22° C. The protocol: (§1) Assay A: RET Enzyme Assay
(§2) Compounds of formulas I, II, or III are screened for their ability to inhibit wildtype, V804M, and G810S mutant RET kinase using CisBio's HTRF® KinEASE™TK assay technology. N-terminal GST tagged recombinant human RET cytoplasmic domain (aa 658-end) from Eurofins ([…]; Catalog No. 14-570M) or N-terminal GST tagged recombinant human V804M mutant RET cytoplasmic domain (aa 658-end) from Millipore (1.25 nM enzyme; Catalog No. 14-760) or N-Terminal GST-tagged recombinant human G810S (aa-658-end) (1.25 nM Enzyme; produced in insect cells) is incubated with 62.5 nM TK-substrate biotin (CisBio, part of Catalog No. 62TK0PEC) and 1 mM ATP along with test compound (0.4% final DMSO in the assay) in a 1× Cisbio enzymatic buffer consisting of […], 5 mM MgCl2, 0.04% BSA and 0.05% Tween20 in a volume of 10 μL. Compounds are typically prepared in a threefold serial dilution in DMSO and added to the assay to give the appropriate final concentration. After a 40-60 min (40 min for V804M, 60 min for WT and G810S) incubation at 22° C., the reaction is quenched by adding quench solution (10 μL) containing 7.8 nM Streptavidine-XL665 and 0.5×TK-ab-Cryptate in HTRF detection buffer (all from CisBio, part of Cat. No. 62TK0PEC). After a 60-80 min incubation (60 minutes for WT, 80 minutes for V804M and G810S) at 22° C., the extent of reaction is determined using a PHERastar plate reader via HTRF detection at excitation/emission 337/665 nm. Percent of inhibition is calculated with 0% inhibition referring to control conditions containing no compound (0.4% DMSO only) and 100% inhibition represented by conditions containing no enzyme. The % inhibition values are fit to a 4 parameter logistic curve, and the determined IC50 value is defined as the estimated concentration of inhibitor at the inflexion point of the fitted curve.
In general terms: TR-FRET usually uses a lanthanide donor and a delayed reading to cut background.

Assay [2] addresses T2, V804M mutant RET kinase (N-terminal GST tagged recombinant human V804M mutant RET cytoplasmic domain, aa 658-end) (Homo sapiens, UniProt P07949, V804M).
T2 construct: human V804M mutant RET cytoplasmic domain (aa 658-end); GST (N); purchased Millipore 14-760
T2 sequence (P07949 658-1114 V804M limits assumed): T1 sequence (P07949 658-1114 G810S limits assumed) with V147M, S153G
The assay can be described thus: RET enzyme assay (HTRF KinEASE TK), V804M. In kind it is biochemical. Particulars: 1 mM ATP, 40 min incubation at 22° C. As for the experimental part:
as §1, §2

Molecules are shown by their SMILES. Positions count from the first letter of the chain named. A value given as a limit tells only on which side of the number the result lay.

For `CC(C(=O)Nc1cc(CC(C)(C)C)no1)c1ccc(-c2nn(C(C)C)c(N)c2C(N)=O)cc1` (single isomer, unassigned; isomer 1) [Example 1, 5-Amino-3-[4-(1-[[3-(2,2-dimethylpropyl)-1,2-oxazol-5-yl]carbamoyl]ethyl)phenyl]-1-isopropylpyrazole-4-carboxamide, Isomer 1], the IC50 in assay [1] and in assay [2] was less than 100 nM throughout.

Turning to `CCC(C)(C)c1cc(NC(=O)C(C)c2ccc(-c3nn(C(C)C)c(N)c3C(N)=O)cc2)on1` (single isomer, unassigned; isomer 1) [Example 15, 5-Amino-1-isopropyl-3-[4-(1-[[3-(2-methylbutan-2-yl)-1,2-oxazol-5-yl]carbamoyl]ethyl)phenyl]pyrazole-4-carboxamide, Isomer 1], the IC50 in assay [1] and in assay [2] was less than 100 nM in each case.

`CC(C(=O)Nc1cc(C(C)(C)C(F)(F)F)no1)c1ccc(-c2nn(C(C)C)c(N)c2C(N)=O)cc1` (single isomer, unassigned; isomer 1) [Example 17, 5-Amino-1-isopropyl-3-[4-(1-[[3-(1,1,1-trifluoro-2-methylpropan-2-yl)-1,2-oxazol-5-yl]carbamoyl]ethyl)phenyl]pyrazole-4-carboxamide, Isomer 1]: the IC50 in assay [1] and in assay [2] was less than 100 nM each time.

Regarding `CC(C(=O)Nc1cc(C2(C)CC2)no1)c1ccc(-c2nn(C(C)C)c(N)c2C(N)=O)cc1` (single isomer, unassigned; isomer 1) [Example 35, 5-Amino-1-isopropyl-3-[4-(1-[[3-(1-methylcyclopropyl)-1,2-oxazol-5-yl]carbamoyl]ethyl)phenyl]pyrazole-4-carboxamide, Isomer 1], the IC50 in assay [1] and in assay [2] was less than 100 nM throughout.

For `CC(C(=O)Nc1cc(-c2ccc(Cl)cc2Cl)no1)c1ccc(-c2nn(C(C)C)c(N)c2C(N)=O)cc1` (single isomer, unassigned; isomer 1) [Example 45, 5-Amino-3-[4-(1-[[3-(2,4-dichlorophenyl)-1,2-oxazol-5-yl]carbamoyl]ethyl)phenyl]-1-isopropylpyrazole-4-carboxamide, Isomer 1], the IC50 in assay [1] and in assay [2] was less than 100 nM each time.

For the compound `CC(C(=O)Nc1cc(C(C)(C)C(F)(F)F)on1)c1ccc(-c2nn(C(C)C)c(N)c2C(N)=O)cc1` (single isomer, unassigned; isomer 1) [Example 81, 5-Amino-1-isopropyl-3-[4-(1-[[5-(1,1,1-trifluoro-2-methylpropan-2-yl)-1,2-oxazol-3-yl]carbamoyl]ethyl)phenyl]pyrazole-4-carboxamide, Isomer 1], the IC50 in assay [1] and in assay [2] was less than 100 nM throughout.

With `CC(C(=O)Nc1cc(C2CC(C)(C)C2)no1)c1ccc(-c2nn(C(C)C)c(N)c2C(N)=O)cc1` (single isomer, unassigned; isomer 1) [Example 98, 5-Amino-3-[4-[2-[[3-(3,3-dimethylcyclobutyl)isoxazol-5-yl]amino]-1-methyl-2-oxo-ethyl]phenyl]-1-isopropyl-pyrazole-4-carboxamide, Isomer 1], the IC50 in assay [1] and in assay [2] was less than 100 nM each time.

On to `CCC(C)(C)c1cc(NC(=O)C(C)c2ccc(-c3nn(C(C)C)c(N)c3C(N)=O)cc2)no1` (single isomer, unassigned; isomer 2) [Example 52, 5-Amino-1-isopropyl-3-[4-(1-[[5-(2-methylbutan-2-yl)-1,2-oxazol-3-yl]carbamoyl]ethyl)phenyl]pyrazole-4-carboxamide, Isomer 2], for which the IC50 in assay [1] and in assay [2] was less than 100 nM throughout.

Take `CC(C(=O)Nc1cc(C(C)(C)C(F)(F)F)on1)c1ccc(-c2nn(C(C)C)c(N)c2C(N)=O)nc1` (single isomer, unassigned; isomer 2) [Example 64, 5-Amino-1-isopropyl-3-[5-(1-[[5-(1,1,1-trifluoro-yl)-1,2-oxazol-3-2-methylpropan-2-yl]carbamoyl]ethyl)pyridin-2-yl]pyrazole-4-carboxamide, Isomer 2]: the 50% inhibitory concentration (IC50) in assay [1] and in assay [2] was less than 100 nM throughout.

For `CCC(C)(C)c1cc(NC(=O)C(C)c2ccc(-c3nn(C(C)C)c(N)c3C(N)=O)nc2)no1` (single isomer, unassigned; isomer 2) [Example 66, 5-Amino-1-isopropyl-3-[5-(1-[[5-(2-methylbutan-2-yl)-1,2-oxazol-3-yl]carbamoyl]ethyl)pyridin-2-yl]pyrazole-4-carboxamide, Isomer 2], the IC50 in assay [1] and in assay [2] was less than 100 nM each time.

`CC(C(=O)Nc1cc(C(C)(C)CC(F)(F)F)on1)c1ccc(-c2nn(C(C)C)c(N)c2C(N)=O)nc1` (single isomer, unassigned; isomer 2) [Example 68, 5-Amino-1-isopropyl-3-(5-(1-oxo-1-((5-(4,4,4-trifluoro-2-methylbutan-2-yl)isoxazol-3-yl)amino)propan-2-yl)pyridin-2-yl)-1H-pyrazole-4-carboxamide, Isomer 2]: the IC50 in assay [1] and in assay [2] was less than 100 nM each time.

Regarding `CC(C(=O)Nc1cc(C(C)(C)C(C)(F)F)on1)c1ccc(-c2nn(C(C)C)c(N)c2C(N)=O)nc1` (single isomer, unassigned; isomer 2) [Example 70, 5-Amino-3-[5-(1-[[5-(3,3-difluoro-2-methylbutan-2-yl)-1,2-oxazol-3-yl]carbamoyl]ethyl)pyridin-2-yl]-1-isopropylpyrazole-4-carboxamide, Isomer 2], the IC50 in assay [1] and in assay [2] was less than 100 nM each time.

On to `CC(C(=O)Nc1cc(C(C)(C)C(C)(F)F)on1)c1ccc(-c2nn(C(C)C)c(N)c2C(N)=O)cc1` (single isomer, unassigned; isomer 2) [Example 76, 5-Amino-3-[4-(1-[[5-(3,3-difluoro-2-methylbutan-2-yl)-1,2-oxazol-3-yl]carbamoyl]ethyl)phenyl]-1-isopropylpyrazole-4-carboxamide, Isomer 2], for which the IC50 in assay [1] and in assay [2] was less than 100 nM in each case.

On to `CC(C(=O)Nc1cc(C(C)(C)C)sn1)c1ccc(-c2nn(C(C)C)c(N)c2C(N)=O)cc1` (single isomer, unassigned; isomer 2) [Example 80, 5-Amino-3-(4-[1-[(5-tert-butyl-1,2-thiazol-3-yl)carbamoyl]ethyl]phenyl)-1-isopropylpyrazole-4-carboxamide, isomer 2], for which the IC50 in assay [1] and in assay [2] was less than 100 nM throughout.

Turning to `CCC(C)(C)c1cc(NC(=O)C(C)c2ccc(-c3nn(C(C)C)c(N)c3C(N)=O)cn2)on1` (single isomer, unassigned; isomer 2) [Example 84, 5-Amino-1-isopropyl-3-[6-[2-[[3-(1,1-dimethylpropyl)isoxazol-5-yl]amino]-1-methyl-2-oxo-ethyl]-3-pyridyl]pyrazole-4-carboxamide, Isomer 2], the IC50 in assay [1] and in assay [2] was less than 100 nM throughout.
